In ChEMBL document CHEMBL1147043, “Comparative metabolism of radiolabeled muraglitazar in animals and humans by quantitative and qualitative metabolite profiling” (Drug Metab Dispos, 2007):

How the values were obtained:
[1] = tested on: Rattus norvegicus; assay: Biodistribution in orally dosed Sprague-Dawley rat urine assessed as 8,12-dihydroxy muraglitazar level by LC/MS analysis; assay type: ADME, organism-based; details: in vivo, po
[2] = tested on: Cynomolgus monkey; assay: AUC (0 to T) in cynomolgus monkey at 1.9 mg/kg, po after 24 hrs; assay type: ADME, organism-based, Macaca fascicularis, Plasma; set-up: time < 24 hr, dose 1.9 mg/kg, route oral; details: in vivo
[3] = Metabolic stability in cynomolgus monkey hepatocytes assessed as 12-hydroxy muraglitazar level by LC/MS analysis relative to control; assay type: ADME, cell-based, Macaca fascicularis, Hepatocyte
[4] = tested on: Hepatocyte; assay: Metabolic stability in Sprague-Dawley rat hepatocytes assessed as 8-hydroxy-O-demethyl muraglitazar level by LC/MS analysis relative to control; assay type: ADME, cell-based
[5] = Biodistribution in orally dosed Beagle dog feces assessed as 17-hydroxy muraglitazar level by LC/MS analysis; assay type: ADME, organism-based, Canis lupus familiaris; details: in vivo, po
[6] = tested on: Plasma; assay: Biodistribution in orally dosed Beagle dog plasma assessed as 12-dihydroxy muraglitazar level after 1 hr by LC/MS analysis; assay type: ADME, organism-based, Canis lupus familiaris; details: in vivo, po
[7] = tested on: Rattus norvegicus; assay: Biodistribution in orally dosed Sprague-Dawley rat urine assessed as O-demethyl muraglitazar level by LC/MS analysis; assay type: ADME, organism-based; details: in vivo, po
[8] = tested on: Plasma; assay: Biodistribution in orally dosed Sprague-Dawley rat plasma assessed as 17-dihydroxy muraglitazar level after 12 hrs by LC/MS analysis; assay type: ADME, organism-based; details: in vivo, po
[9] = Drug concentration in cynomolgus monkey urine at 1.9 mg/kg, po after 12 hrs; assay type: ADME, organism-based, Macaca fascicularis; set-up: dose 1.9 mg/kg, route oral; details: read-out: Drug uptake
[10] = tested on: Plasma; assay: Biodistribution in orally dosed Sprague-Dawley rat plasma assessed as 12-hydroxy-O-demethyl muraglitazar level after 12 hrs by LC/MS analysis; assay type: ADME, organism-based; details: in vivo, po
[11] = Metabolic stability in CD1 mouse hepatocytes assessed as 9-hydroxy muraglitazar level by LC/MS analysis relative to control; assay type: ADME, cell-based, Hepatocyte
[12] = tested on: Plasma; assay: Biodistribution in orally dosed cynomolgus monkey plasma assessed as 12,17-dihydroxy muraglitazar level after 4 hrs by LC/MS analysis; assay type: ADME, organism-based, Macaca fascicularis; details: in vivo, po
[13] = tested on: Hepatocyte; assay: Metabolic stability in human hepatocytes assessed as 9-hydroxy-O-demethyl muraglitazar level by LC/MS analysis relative to control; assay type: ADME, cell-based
[14] = tested on: Hepatocyte; assay: Metabolic stability in human hepatocytes assessed as O-dealkyl-O-demethyl muraglitazar level by LC/MS analysis relative to control; assay type: ADME, cell-based
[15] = Biodistribution in orally dosed cynomolgus monkey feces assessed as 17-hydroxy muraglitazar level by LC/MS analysis; assay type: ADME, organism-based, Macaca fascicularis; details: in vivo, po
[16] = Biodistribution in orally dosed cynomolgus monkey urine assessed as muraglitazar 12-carboxylic acid level by LC/MS analysis; assay type: ADME, organism-based, Macaca fascicularis; details: in vivo, po
[17] = tested on: Plasma; assay: Biodistribution in orally dosed Beagle dog plasma assessed as 12-hydroxy-O-demethyl muraglitazar level after 12 hrs by LC/MS analysis; assay type: ADME, organism-based, Canis lupus familiaris; details: in vivo, po
[18] = tested on: Canis familiaris; assay: AUC (0 to T) in Beagle dog at 2 mg/kg, po after 4 hrs; assay type: ADME, organism-based, Canis lupus familiaris, Plasma; set-up: time < 4 hr, dose 2 mg/kg, route oral; details: in vivo
[19] = Biodistribution in orally dosed cynomolgus monkey urine assessed as O-dealkyl muraglitazar level by LC/MS analysis; assay type: ADME, organism-based, Macaca fascicularis; details: in vivo, po
[20] = tested on: Hepatocyte; assay: Metabolic stability in Sprague-Dawley rat hepatocytes assessed as 12-hydroxy muraglitazar level by LC/MS analysis relative to control; assay type: ADME, cell-based
[21] = tested on: Plasma; assay: Biodistribution in orally dosed human plasma assessed as […] muraglitazar level after 4 hrs by LC/MS analysis; assay type: ADME, organism-based; details: in vivo, po
[22] = Biodistribution in orally dosed cynomolgus monkey feces assessed as 8,12-dihydroxy muraglitazar level by LC/MS analysis; assay type: ADME, organism-based, Macaca fascicularis; details: in vivo, po
[23] = Biodistribution in orally dosed cynomolgus monkey feces assessed as muraglitazar 12-carboxylic acid level by LC/MS analysis; assay type: ADME, organism-based, Macaca fascicularis; details: in vivo, po
[24] = tested on: Plasma; assay: Biodistribution in orally dosed cynomolgus monkey plasma assessed as O-demethyl muraglitazar glucuronide level after 12 hrs by LC/MS analysis; assay type: ADME, organism-based, Macaca fascicularis; details: in vivo, po
[25] = tested on: Plasma; assay: Biodistribution in orally dosed cynomolgus monkey plasma assessed as 12-dihydroxy muraglitazar level after 4 hrs by LC/MS analysis; assay type: ADME, organism-based, Macaca fascicularis; details: in vivo, po
[26] = tested on: Rattus norvegicus; assay: Biodistribution in orally dosed Sprague-Dawley rat urine assessed as 17-hydroxy muraglitazar level by LC/MS analysis; assay type: ADME, organism-based; details: in vivo, po
[27] = tested on: Hepatocyte; assay: Metabolic stability in Sprague-Dawley rat hepatocytes assessed as 12,17-dihydroxy muraglitazar level by LC/MS analysis relative to control; assay type: ADME, cell-based
[28] = Drug concentration in cynomolgus monkey feces assessed as recovery of radioactive dose at 2 mg/kg, po after 168 hrs; assay type: ADME, organism-based, Macaca fascicularis; set-up: dose 2 mg/kg, route oral; details: in vivo
[29] = tested on: Plasma; assay: Biodistribution in orally dosed human plasma assessed as O-Dealkyl muraglitazar level after 4 hrs by LC/MS analysis; assay type: ADME, organism-based; details: in vivo, po
[30] = Biodistribution in orally dosed cynomolgus monkey feces assessed as 12-hydroxy muraglitazar level by LC/MS analysis; assay type: ADME, organism-based, Macaca fascicularis; details: in vivo, po
[31] = tested on: Plasma; assay: Biodistribution in orally dosed human plasma assessed as muraglitazar glucuronide level after 12 hrs by LC/MS analysis; assay type: ADME, organism-based; details: in vivo, po
[32] = Biodistribution in orally dosed cynomolgus monkey urine assessed as O-demethyl muraglitazar glucuronide level by LC/MS analysis; assay type: ADME, organism-based, Macaca fascicularis; details: in vivo, po
[33] = Biodistribution in orally dosed cynomolgus monkey feces assessed as 12-hydroxy-O-demethyl muraglitazar level by LC/MS analysis; assay type: ADME, organism-based, Macaca fascicularis; details: in vivo, po
[34] = tested on: Hepatocyte; assay: Metabolic stability in Sprague-Dawley rat hepatocytes assessed as 17-hydroxy-O-demethyl muraglitazar level by LC/MS analysis relative to control; assay type: ADME, cell-based
[35] = tested on: Plasma; assay: Biodistribution in orally dosed cynomolgus monkey plasma assessed as 17-dihydroxy muraglitazar level after 1 hr by LC/MS analysis; assay type: ADME, organism-based, Macaca fascicularis; details: in vivo, po
[36] = tested on: Plasma; assay: Biodistribution in orally dosed Sprague-Dawley rat plasma assessed as 17-hydroxy-O-demethyl muraglitazar level after 12 hrs by LC/MS analysis; assay type: ADME, organism-based; details: in vivo, po
[37] = tested on: Plasma; assay: Biodistribution in orally dosed cynomolgus monkey plasma assessed as O-Dealkyl muraglitazar level after 1 hr by LC/MS analysis; assay type: ADME, organism-based, Macaca fascicularis; details: in vivo, po
[38] = Metabolic stability in CD1 mouse hepatocytes assessed as di-oxygenated muraglitazar level by LC/MS analysis relative to control; assay type: ADME, cell-based, Hepatocyte
[39] = Drug concentration in bile duct-cannulated cynomolgus monkey bile at 5 mg/kg, po after 48 hrs; assay type: ADME, organism-based, Macaca fascicularis; set-up: dose 5 mg/kg, route oral; details: in vivo
[40] = Drug concentration in cynomolgus monkey urine assessed as recovery of radioactive dose at 2 mg/kg, po after 168 hrs; assay type: ADME, organism-based, Macaca fascicularis; set-up: dose 2 mg/kg, route oral; details: in vivo
[41] = Metabolic stability in CD1 mouse hepatocytes assessed as O-dealkyl-O-demethyl muraglitazar level by LC/MS analysis relative to control; assay type: ADME, cell-based, Hepatocyte
[42] = tested on: Hepatocyte; assay: Metabolic stability in human hepatocytes assessed as 8-hydroxy-O-demethyl muraglitazar level by LC/MS analysis relative to control; assay type: ADME, cell-based
[43] = Tmax in Sprague-Dawley rat at 10 mg/kg, po after 24 hrs; assay type: ADME, organism-based; set-up: dose 10 mg/kg, route oral; details: in vivo
[44] = Biodistribution in orally dosed Beagle dog feces assessed as 8-hydroxy muraglitazar level by LC/MS analysis; assay type: ADME, organism-based, Canis lupus familiaris; details: in vivo, po
[45] = Fecal excretion of compound in orally dosed cynomolgus monkey within 96 hrs; assay type: ADME, organism-based, Macaca fascicularis; details: faeces, po, read-out: Activity
[46] = Metabolic stability in cynomolgus monkey hepatocytes assessed as 17-hydroxy muraglitazar level by LC/MS analysis relative to control; assay type: ADME, cell-based, Macaca fascicularis, Hepatocyte
[47] = Biodistribution in orally dosed human urine assessed as 12-hydroxy-O-demethyl muraglitazar level by LC/MS analysis; assay type: ADME, organism-based; details: in vivo, po
[48] = Half life in Sprague-Dawley rat at 10 mg/kg, po after 24 hrs; assay type: ADME, organism-based; set-up: dose 10 mg/kg, route oral; details: in vivo
[49] = Metabolic stability in CD1 mouse hepatocytes assessed as 8-hydroxy muraglitazar level by LC/MS analysis relative to control; assay type: ADME, cell-based, Hepatocyte
[50] = tested on: Plasma; assay: Biodistribution in orally dosed human plasma assessed as 8-hydroxy-O-demethyl muraglitazar level after 4 hrs by LC/MS analysis; assay type: ADME, organism-based; details: in vivo, po
[51] = tested on: Plasma; assay: Biodistribution in orally dosed human plasma assessed as muraglitazar glucuronide level after 4 hrs by LC/MS analysis; assay type: ADME, organism-based; details: in vivo, po
[52] = Biodistribution in orally dosed cynomolgus monkey feces assessed as 9-hydroxy muraglitazar level by LC/MS analysis; assay type: ADME, organism-based, Macaca fascicularis; details: in vivo, po

`COc1ccc(OC(=O)N(CC(=O)O)Cc2ccc(OCCc3nc(-c4ccccc4)oc3C)cc2)cc1` [MURAGLITAZAR] showed a Drug uptake [1] of under 0.01%, an AUC [2] of 71 ugequiv.h/ml and a Drug uptake [3] of 0.8%. It also gave a Drug uptake [4] of under 0.2%, a Drug uptake [5] of 1.78% and a Drug uptake [6] of 1%. For the same compound, the Drug uptake [7] was 0.12%, the Drug uptake [8] was under 0.05% and the dose excreted at 12 h [9] was 1.7%. For the same compound, the Drug uptake [10] was under 0.05%, the Drug uptake [11] was 1.3% and the Drug uptake [12] was 1.5%. For the same compound, the Drug uptake [13] was under 0.2%, the Drug uptake [14] was under 0.2% and the Drug uptake [15] was 25.73%. For the same compound, the Drug uptake [16] was 0.04%, the Drug uptake [17] was 15% and the AUC [18] was 1.1 ugequiv.h/ml. The Drug uptake [19] was 1.04%, the Drug uptake [20] was 1.3% and the Drug uptake [21] was under 0.05%. For the same compound, the Drug uptake [22] was 2.41%, the Drug uptake [23] was 1.61% and the Drug uptake [24] was 0.4%. For the same compound, the Drug uptake [25] was 1.6%, the Drug uptake [26] was under 0.01% and the Drug uptake [27] was 0.3%. For the same compound, the Drug uptake [28] was 80.4%, the Drug uptake [29] was under 0.05% and the Drug uptake [30] was 7.24%. It also gave a Drug uptake [31] of 2.5%, a Drug uptake [32] of under 0.01% and a Drug uptake [33] of 1.61%. For the same compound, the Drug uptake [34] was under 0.2%, the Drug uptake [35] was 8% and the Drug uptake [36] was under 0.05%. It also gave a Drug uptake [37] of 0.3%, a Drug uptake [38] of 1.4% and a Drug uptake [39] of 0.007 mgequiv/ml. For the same compound, the Drug uptake [40] was 3.7%, the Drug uptake [41] was 5.7% and the Drug uptake [42] was under 0.2%. For the same compound, the Tmax [43] was 0.5 h, the Drug uptake [44] was 0.18% and the dose excreted at 96 h [45] was 75%. The Drug uptake [46] was 7.9%, the Drug uptake [47] was 0.16% and the half-life [48] was 3.8 h. For the same compound, the Drug uptake [49] was 0.3%, the Drug uptake [50] was under 0.05% and the Drug uptake [51] was 4.2%. For the same compound, the Drug uptake [52] was 0.56%.
